# Results from patent publication US8198456B2, “Dihydropyridine derivatives as useful as protein kinase inhibitors” (Bayer Intellectual Property GmbH, priority 2006, dated 2012).
# Molecular target: T1, recombinant human c-MET kinase enzyme domain (Homo sapiens, UniProt P08581)
# T1 construct: Recombinant c-Met kinase domain (amino acids 960-1390); His (N); made in house; host or cells: baculovirus expression system (insect cells; SF21 is named only for the alternative format)
# Assay: c-MET receptor tyrosine kinase Homogeneous Time Resolved Fluorescence assay (HTRF)
# Format: biochemical
# Conditions: Biological Example 1 and/or Biological Example 2
# Method in brief: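 His-tagged c-Met kinase domain (aa 960-1390, baculovirus) phosphorylated biotinylated poly-Glu-Tyr (37 nM) with 20 μM ATP in HEPES pH 7.4, Mg/Mn, DTT, 1% DMSO, 20 min at ambient temperature, EDTA-stopped. HTRF read (PT66-Eu/streptavidin-XL665, 665/620 nm ratio) after 4 h; IC50 from eight 1:3.16 dilutions.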
# T1 sequence (P08581 960-1390): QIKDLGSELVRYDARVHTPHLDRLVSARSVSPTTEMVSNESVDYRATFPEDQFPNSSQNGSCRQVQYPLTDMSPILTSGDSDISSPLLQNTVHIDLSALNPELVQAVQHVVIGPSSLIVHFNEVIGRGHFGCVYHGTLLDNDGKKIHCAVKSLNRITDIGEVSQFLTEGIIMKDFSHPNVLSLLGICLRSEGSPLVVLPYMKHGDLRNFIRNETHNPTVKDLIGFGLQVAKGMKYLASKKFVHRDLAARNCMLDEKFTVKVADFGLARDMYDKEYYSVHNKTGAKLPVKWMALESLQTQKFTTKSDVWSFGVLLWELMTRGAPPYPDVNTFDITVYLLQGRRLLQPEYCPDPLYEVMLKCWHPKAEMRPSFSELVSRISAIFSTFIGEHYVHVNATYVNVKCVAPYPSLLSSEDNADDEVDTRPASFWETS
row,IC50 [µM],SMILES
1,< 0.1,"CC1=C(C#N)C(c2ccc3[nH]nc(-c4cn[nH]c4)c3c2)C(C#N)=C(C)N1 [compound 173, 1,4-dihydro-2,6-dimethyl-4-[3-(1H-pyrazol-4-yl)-1H-indazol-5-yl]-3,5-pyridinedicarbonitrile]"
2,< 0.1,"CC1=C(C#N)C(c2ccc3[nH]nc(-c4cnn(C)c4)c3c2)C(C#N)=C(C)N1 [compound 174, 1,4-dihydro-2,6-dimethyl-4-[3-(1-methyl-1H-pyrazol-4-yl)-1H-indazol-5-yl]-3,5-pyridinedicarbonitrile]"
3,< 0.1,"CC1=C(C#N)C(c2ccc3[nH]nc(-c4ccon4)c3c2)C(C#N)=C(C)N1 [compound 175, 1,4-dihydro-4-[3-(3-isoxazolyl)-1H-indazol-5-yl]-2,6-dimethyl-3,5-pyridinedicarbonitrile]"
4,0.5 to 2.5,"CC1=C(C#N)C(c2ccc3[nH]nc(O)c3c2)C(C#N)=C(C)N1 [compound 176, 1,4-dihydro-4-(3-hydroxy-1H-indazol-5-yl)-2,6-dimethyl-3,5-pyridinedicarbonitrile]"
5,< 0.1,"CC1=C(C#N)C(c2ccc3[nH]nc(-c4cnco4)c3c2)C(C#N)=C(C)N1 [compound 177, 1,4-dihydro-2,6-dimethyl-4-[3-(5-oxazolyl)-1H-indazol-5-yl]-3,5-pyridinedicarbonitrile]"
6,< 0.1,"CC1=C(C#N)C(c2ccc3[nH]nc(-c4cccs4)c3c2)C(C#N)=C(C)N1 [compound 178, 1,4-dihydro-2,6-dimethyl-4-[3-(2-thienyl)-1H-indazol-5-yl]-3,5-pyridinedicarbonitrile]"
7,0.5 to 2.5,"CNC(=O)c1cccc(C2C(C#N)=C(C)NC(C)=C2C#N)n1 [compound 189, 3′,5′-dicyano-1′,4′-dihydro-N,2′,6′-trimethyl-[2,4′-bipyridine]-6-carboxamide]"
8,0.1 to 0.5,"CC1=C(C#N)C(c2cccc(C(=O)Nc3cccnc3)n2)C(C#N)=C(C)N1 [compound 190, 3′,5′-dicyano-1′,4′-dihydro-2′,6′-dimethyl-N-3-pyridinyl-[2,4′-bipyridine]-6-carboxamide]"
9,0.1 to 0.5,"CC1=C(C#N)C(c2cccc(C(=O)NCCCn3ccnc3)n2)C(C#N)=C(C)N1 [compound 191, 3′,5′-dicyano-1′,4′-dihydro-N-[3-(1H-imidazol-1-yl)propyl]-2′,6′-dimethyl-[2,4′-bipyridine]-6-carboxamide]"
10,< 0.1,"CC1=C(C#N)C(c2cccc(C(=O)Nc3ccccn3)n2)C(C#N)=C(C)N1 [compound 192, 3′,5′-dicyano-1′,4′-dihydro-2′,6′-dimethyl-N-2-pyridinyl-[2,4′-bipyridine]-6-carboxamide]"
11,< 0.1,"CC1=C(C#N)C(c2cnc3[nH]ncc3c2)C(C#N)=C(C)N1 [compound 204, 1,4-dihydro-2,6-dimethyl-4-(1H-pyrazolo[3,4-b]pyridin-5-yl)-3,5-pyridinedicarbonitrile]"
12,< 0.1,"COC(=O)c1cccc(C2C(C#N)=C(C)NC(c3ccccc3)=C2C#N)c1 (stereo not drawn) [compound 219, 3-(3,5-dicyano-1,4-dihydro-2-methyl-6-phenyl-4-pyridinyl)-benzoic acid, methyl ester]"
13,0.1 to 0.5,"COC(=O)c1cccc(C2C(C#N)=C(C)NC(C3CCCN(C(C)=O)C3)=C2C#N)c1 (stereo not drawn) [compound 229, 3-[2-(1-acetyl-3-piperidinyl)-3,5-dicyano-1,4-dihydro-6-methyl-4-pyridinyl]-benzoic acid, methyl ester]"
14,0.1 to 0.5,"COC(=O)c1cccc(C2C(C#N)=C(C)NC(C3CCCN(C(N)=O)C3)=C2C#N)c1 (stereo not drawn) [compound 230, 3-[2-[1-(aminocarbonyl)-3-piperidinyl]-3,5-dicyano-1,4-dihydro-6-methyl-4-pyridinyl]-benzoic acid, methyl ester]"
15,0.5 to 2.5,"COC(=O)c1cccc(C2C(C#N)=C(C)NC(c3cccc([N+](=O)[O-])c3)=C2C#N)c1 (stereo not drawn) [compound 232, 3-[3,5-dicyano-1,4-dihydro-2-methyl-6-(3-nitrophenyl)-4-pyridinyl]-benzoic acid, methyl ester]"
